pKi: −log10 of the molar value.
Molecular target: 5-HT2A (Homo sapiens (Human), UniProt P28223)
Assay: Radioligand binding assay, [^3H]5-HT competition, 5-HT2A
Details: [^3H]5-HT radioligand, membranes of HEK293 cells expressing recombinant 5-HT2A; Ki from IC50 by Cheng-Prusoff; read-out: 5-HT2A serotonin binding Ki value

Chain of 5-HT2A (P28223 whole entry): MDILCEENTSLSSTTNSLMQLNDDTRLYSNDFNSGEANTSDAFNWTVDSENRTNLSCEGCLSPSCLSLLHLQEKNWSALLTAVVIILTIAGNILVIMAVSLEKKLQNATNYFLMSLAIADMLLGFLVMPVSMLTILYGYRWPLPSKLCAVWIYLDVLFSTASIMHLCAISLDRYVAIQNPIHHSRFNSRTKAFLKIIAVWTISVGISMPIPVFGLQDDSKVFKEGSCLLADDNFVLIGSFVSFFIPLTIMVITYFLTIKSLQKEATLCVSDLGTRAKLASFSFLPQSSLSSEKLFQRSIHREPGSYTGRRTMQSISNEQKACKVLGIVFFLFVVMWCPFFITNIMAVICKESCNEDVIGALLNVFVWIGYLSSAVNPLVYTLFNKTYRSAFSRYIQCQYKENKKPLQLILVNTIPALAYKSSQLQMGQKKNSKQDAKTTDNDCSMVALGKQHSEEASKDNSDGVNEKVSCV

## Cc1ncnc(C)c1-c1cc(NC(=O)C2CC2)ccc1OCCN(C)CCF [Compound 360, N-(3-(4,6-dimethylpyrimidin-5-yl)-4-(2-((2-fluoroethyl)(methyl)amino)ethoxy)phenyl)cyclopropanecarboxamide]
  pKi: 7.96

## CCN(CCF)CCOc1ccc(NC(=O)C2CC2)cc1-c1c(C)ncnc1C [Compound 362, N-[3-(4,6-dimethylpyrimidin-5-yl)-4-[2-[ethyl (2-fluoroethyl)amino]ethoxy]phenyl]cyclopropanecarboxamide]
  pKi: 7.02

## CCCN(CCF)CCOc1ccc(NC(=O)C2CC2)cc1-c1c(C)ncnc1C [Compound 363, N-[3-(4,6-dimethylpyrimidin-5-yl)-4-[2-[2-fluoroethyl(propyl)amino]ethoxy]phenyl]cyclopropanecarboxamide]
  pKi: 6.97

## Cc1ncnc(C)c1-c1cc(NC(=O)C2CC2)ccc1OCCN(C)CCS(C)(=O)=O [Compound 364, N-(3-(4,6-dimethylpyrimidin-5-yl)-4-(2-(methyl(2-(methylsulfonyl)ethyl)amino)ethoxy)phenyl)cyclopropanecarboxamide]
  pKi: 6.43

## Cc1ncnc(C)c1-c1cc(NC(=O)C2CC2)ccc1OCCN(C)CC[S+](C)[O-] (stereo not shown) [Compound 365, N-[3-(4,6-dimethylpyrimidin-5-yl)-4-[2-[methyl (2-methylsulfinylethyl)amino]ethoxy]phenyl]cyclopropanecarboxamide]
  pKi: 6.63

## CCN(C)CCOc1ccc(NC(=O)C2CC2)cc1-c1c(C)ncnc1C [Compound 366, N-[3-(4,6-dimethylpyrimidin-5-yl)-4-[2-[ethyl(methyl)amino]ethoxy]phenyl]cyclopropanecarboxamide]
  pKi: 7.95

## CCCN(C)CCOc1ccc(NC(=O)C2CC2)cc1-c1c(C)ncnc1C [Compound 367, N-(3-(4,6-dimethylpyrimidin-5-yl)-4-(2-(methyl(propyl)amino)ethoxy)phenyl)cyclopropanecarboxamide]
  pKi: 7.42

## Cc1ncnc(C)c1-c1cc(NC(=O)C2CC2)ccc1OCCN(C)CC1CC1 [Compound 368, N-(4-(2-((cyclopropylmethyl)(methyl)amino)ethoxy)-3-(4,6-dimethylpyrimidin-5-yl)phenyl)cyclopropanecarboxamide]
  pKi: 7.71

## Cc1ncnc(C)c1-c1cc(NC(=O)C2CC2)ccc1OCCN(C)C1CCC1 [Compound 369, N-(4-(2-(cyclobutyl(methyl)amino)ethoxy)-3-(4,6-dimethylpyrimidin-5-yl)phenyl)cyclopropanecarboxamide]
  pKi: 7.29

## CCN(CC)CCOc1ccc(NC(=O)C2CC2)cc1-c1c(C)ncnc1C [Compound 370, N-(4-(2-(diethylamino)ethoxy)-3-(4,6-dimethylpyrimidin-5-yl)phenyl)cyclopropanecarboxamide]
  pKi: 7.10

## COCCNCCOc1ccc(NC(=O)c2ccccc2)cc1-c1c(C)ncnc1C [Compound 371, N-(3-(4,6-dimethylpyrimidin-5-yl)-4-(2-((2-methoxyethyl)amino)ethoxy)phenyl)benzamide]
  pKi: 8.32

## COCCNCCOc1ccc(NC(=O)c2cccc(OC)c2)cc1-c1c(C)ncnc1C [Compound 372, N-(3-(4,6-dimethylpyrimidin-5-yl)-4-(2-((2-methoxyethyl)amino)ethoxy)phenyl)-3-methoxybenzamide]
  pKi: 8.70

## COCCNCCOc1ccc(NC(=O)c2cccc(F)c2)cc1-c1c(C)ncnc1C [Compound 373, N-(3-(4,6-dimethylpyrimidin-5-yl)-4-(2-((2-methoxyethyl)amino)ethoxy)phenyl)-3-fluorobenzamide]
  pKi: 8.76

## COCCNCCOc1ccc(NC(=O)c2ccc(F)cc2)cc1-c1c(C)ncnc1C [Compound 374, N-(3-(4,6-dimethylpyrimidin-5-yl)-4-(2-((2-methoxyethyl)amino)ethoxy)phenyl)-4-fluorobenzamide]
  pKi: 8.46

## COCCNCCOc1ccc(NC(=O)c2c(F)cnn2C)cc1-c1c(C)ncnc1C [Compound 375, N-(3-(4,6-dimethylpyrimidin-5-yl)-4-(2-((2-methoxyethyl)amino)ethoxy)phenyl)-4-fluoro-1-methyl-1H-pyrazole-5-carboxamide]
  pKi: 7.88

## COCCN(C)CCOc1ccc(NC(=O)c2ccccc2)cc1-c1c(C)ncnc1C [Compound 376, N-(3-(4,6-dimethylpyrimidin-5-yl)-4-(2-((2-methoxyethyl) (methyl)amino)ethoxy)phenyl)benzamide]
  pKi: 7.20

## COCCN(C)CCOc1ccc(NC(=O)c2cccc(OC)c2)cc1-c1c(C)ncnc1C [Compound 377, N-(3-(4,6-dimethylpyrimidin-5-yl)-4-(2-((2-methoxyethyl)(methyl)amino)ethoxy)phenyl)-3-methoxybenzamide]
  pKi: 8.58

## COCCN(C)CCOc1ccc(NC(=O)c2cccc(F)c2)cc1-c1c(C)ncnc1C [Compound 378, N-(3-(4,6-dimethylpyrimidin-5-yl)-4-(2-((2-methoxyethyl)(methyl)amino)ethoxy)phenyl)-3-fluorobenzamide]
  pKi: 7.90

## COCCN(C)CCOc1ccc(NC(=O)c2ccc(F)cc2)cc1-c1c(C)ncnc1C [Compound 379, N-(3-(4,6-dimethylpyrimidin-5-yl)-4-(2-((2-methoxyethyl)(methyl)amino)ethoxy)phenyl)-4-fluorobenzamide]
  pKi: 8.08

## COCCN(C)CCOc1ccc(NC(=O)c2c(F)cnn2C)cc1-c1c(C)ncnc1C [Compound 380, N-(3-(4,6-dimethylpyrimidin-5-yl)-4-(2-((2-methoxyethyl)(methyl)amino)ethoxy)phenyl)-4-fluoro-1-methyl-1H-pyrazole-5-carboxamide]
  pKi: 8.02

## Cc1ncnc(C)c1-c1cc(NC(=O)c2ccccc2)ccc1OCCN1C[C@@H]2C[C@H]1CO2 [Compound 381, N-(4-(2-((1S,4S)-2-oxa-5-azabicyclo[2.2.1]heptan-5-yl)ethoxy)-3-(4,6-dimethylpyrimidin-5-yl)phenyl)benzamide]
  pKi: 8.26

## Cc1ncnc(C)c1-c1cc(NC(=O)C2(F)CC2)ccc1OCCN1C[C@@H]2C[C@H]1CO2 [Compound 382, N-(4-(2-((1S,4S)-2-oxa-5-azabicyclo[2.2.1]heptan-5-yl)ethoxy)-3-(4,6-dimethylpyrimidin-5-yl)phenyl)-1-fluorocyclopropane-1-carboxamide]
  pKi: 8.06

## Cc1ncnc(C)c1-c1cc(NC(=O)c2ccnn2C)ccc1OCCN1C[C@@H]2C[C@H]1CO2 [Compound 383, N-(4-(2-((1S,4S)-2-oxa-5-azabicyclo[2.2.1]heptan-5-yl)ethoxy)-3-(4,6-dimethylpyrimidin-5-yl)phenyl)-1-methyl-1H-pyrazole-5-carboxamide]
  pKi: 8.05

## Cc1ncnc(C)c1-c1cc(NC(=O)c2ccccc2)ccc1OCCN1C[C@H]2C[C@H]2C1 [Compound 384, N-[4-[2-[(1R,5S)-3-azabicyclo[3.1.0]hexan-3-yl]ethoxy]-3-(4,6-dimethylpyrimidin-5-yl)phenyl]benzamide]
  pKi: 8.44

## Cc1ncnc(C)c1-c1cc(NC(=O)C2CC2)ccc1OCCN1CC(F)C1 [Compound 386, N-[3-(4,6-Dimethylpyrimidin-5-yl)-4-[2-(3-fluoroazetidin-1-yl)ethoxy]phenyl]cyclopropanecarboxamide]
  pKi: 8.83

## Cc1ncnc(C)c1-c1cc(NC(=O)c2ccccc2)ccc1OCCN1CC(F)C1 [Compound 387, N-[3-(4,6-dimethylpyrimidin-5-yl)-4-[2-(3-fluoroazetidin-1-yl)ethoxy]phenyl]benzamide]
  pKi: 7.88

## Cc1ncnc(C)c1-c1cc(NC(=O)C2CC2)ccc1OCCN1CC(O)C1 [Compound 388, N-[3-(4,6-dimethylpyrimidin-5-yl)-4-[2-(3-hydroxyazetidin-1-yl)ethoxy]phenyl]cyclopropanecarboxamide]
  pKi: 7.86

## Cc1ncnc(C)c1-c1cc(NC(=O)c2ccccc2)ccc1OCCN1CC(O)C1 [Compound 389, N-[3-(4,6-dimethylpyrimidin-5-yl)-4-[2-(3-hydroxyazetidin-1-yl)ethoxy]phenyl]benzamide]
  pKi: 7.95

## Cc1ncnc(C)c1-c1cc(NC(=O)C2CC2)ccc1OCCN1CCOCC1 [Compound 390, N-[3-(4,6-dimethylpyrimidin-5-yl)-4-(2-morpholinoethoxy)phenyl]cyclopropanecarboxamide]
  pKi: 8.28

## Cc1ncncc1-c1cc(NC(=O)C2CC2)ccc1OCCN1CCOCC1 [Compound 391, N-(3-(4-methylpyrimidin-5-yl)-4-(2-morpholinoethoxy)phenyl)cyclopropanecarboxamide]
  pKi: 7.60

## Cc1ncnc(C)c1-c1cc(NC(=O)[C@@H]2C[C@@H]2F)ccc1OCCN1CCOCC1 [Compound 392, (1S,2S)—N-[3-(4,6-dimethylpyrimidin-5-yl)-4-(2-morpholinoethoxy)phenyl]-2-fluoro-cyclopropanecarboxamide]
  pKi: 7.82

## Cc1ncoc1C(=O)Nc1ccc(OCCN2CCOCC2)c(-c2c(C)ncnc2C)c1 [Compound 393, N-(3-(4,6-dimethylpyrimidin-5-yl)-4-(2-morpholinoethoxy)phenyl)-4-methyloxazole-5-carboxamide]
  pKi: 7.95

## Cc1ncnc(C)c1-c1cc(NC(=O)c2ccnn2C)ccc1OCCN1CCOCC1 [Compound 394, N-(3-(4,6-dimethylpyrimidin-5-yl)-4-(2-morpholinoethoxy)phenyl)-1-methyl-1H-pyrazole-5-carboxamide]
  pKi: 7.89

## CCCC(=O)Nc1ccc(OC2CNC2)c(-c2c(C)ncnc2C)c1 [Compound 397, N-(4-(azetidin-3-yloxy)-3-(4,6-dimethylpyrimidin-5-yl)phenyl) butyramide]
  pKi: 8.07

## Cc1ncnc(C)c1-c1cc(NC(=O)c2ccnn2C)ccc1OC1CNC1 [Compound 399, N-(4-(azetidin-3-yloxy)-3-(4,6-dimethylpyrimidin-5-yl)phenyl)-1-methyl-1H-pyrazole-5-carboxamide]
  pKi: 7.89

## CCOC1CC1C(=O)Nc1ccc(OCCN2CCOCC2)c(-c2c(C)ncnc2C)c1 (stereo not shown) [Compound 401, N-(3-(4,6-dimethylpyrimidin-5-yl)-4-(2-morpholinoethoxy)phenyl)-2-ethoxycyclopropane-1-carboxamide]
  pKi: 7.51

## Cc1ncnc(C)c1-c1cc(NC(=O)c2c(F)cnn2C)ccc1OC1CNC1 [Compound 402, N-(4-(azetidin-3-yloxy)-3-(4,6-dimethylpyrimidin-5-yl)phenyl)-4-fluoro-1-methyl-1H-pyrazole-5-carboxamide]
  pKi: 8.54
